According to patent publication US10827695B2, “Process for in vitro flowering in Crocus sativus L” (Council of Scientific & Industrial Research, priority 2015, dated 2020):

System: saffron crocus (Crocus sativus L.) corm explants
Assay: in-vitro induction of flowering / proliferation of floral primordia in corm explants on MS medium with PGR
Assay type: cell-based
Experimental: Accordingly, the incubation is carried out at a temperature in the range of 9° C. to 30° C. preferably at a temperature in the range of 9° C. to 21° C., with RH (relative humidity) in the range of 50 to 90%, and photoperiod of about 16 hours provided by 1/2/4 cool fluorescent tubes (Philips, 40 W), giving about 11.7 ? mol m−^2 s^−1 PPF (Photosynthetic Photon Flux) i.e. ˜866 lux (illuminance) each followed by 8-h dark period. The cultures are maintained for 4-5 weeks in the medium at above incubation conditions during which 80% of the culture remain sterile and show sprouting. They are then transferred to fresh MS medium of same composition and incubated under sterile conditions for about 1 to 2 weeks till the sprouted buds are about 8 cm long. The sprouted buds are slit vertically and incubated in MS medium of same composition for another 2 to 3 weeks under the same conditions. This helps the bud to open and grow further (FIG. 1 & FIG. 2).
(§1) Corms weighing ˜10 gm were used for the experiments. Explants were prepared by trimming the sides and base of the corms and making small cubes of about 1 cm^3 containing the dormant or slightly sprouted apical buds on 22 Oct. 2014.
These explants were surface sterilized by washing them with neutral Detergent Labolene for 10 min followed by washing with 15% Savlon for 10 minutes. Further, these explants were treated with 1% Bavistin (BASF) for 30 minutes followed by 5 min followed by 0.08% mercuric chloride treatment in a sterile work station (Laminar Air Flow cabinet). After each treatment the explants were washed with sterile distilled water.
Murashige and Skoog Medium supplemented with 6 benzyl amino purine (BAP) (1.0 mg/l) was used for culture. The media made in distilled water was further constituted with 3% sucrose and 0.6% agar. The final pH was adjusted at 5.7. The media was autoclaved at 121° C. at 15 lbs pressure for 20 minutes.
The cultures were maintained for 5 weeks in the medium at 25±2° C., light intensity 16-h light (at 11.7 ? mol m^−2s^−1) followed by 8-h dark period.
The sterile sprouted buds of 5-7 cms length were transferred to fresh medium of same composition after making a vertical slit on the sprouting bud. It helps the bud to open and grow further.
They were again incubated for 3 weeks under the same incubation conditions.
as §1, with “2014. One part of such samples was used for this set-up, while other was reserved for set ^-up of Example 3.” for “2014.”
The explants were surface sterilized by passing it through Detergent Labolene for 10 min followed by washing with 15% Savlon for 10 minutes. Further, the cubed explants were treated with 1% Bavistin (BASF) for 30 minutes followed by 5 min 0.08% mercuric chloride treatment in a sterile work station (Laminar Air Flow cabinet). After each treatment the explants were washed with sterile distilled water.
The cultures were maintained for 5 weeks in the medium at 25±2° C. Light intensity 16-h light (at 11.7 ? mol m^−2 s^−1) followed by 8-h dark period.
The sterile sprouted buds of 5-7 cm length were transferred to fresh medium of same composition after making a vertical slit on the sprouting bud.
The explants were surface sterilized by treating them with neutral detergent Labolene for 15 min followed by washing with 20% Savlon for 5 minutes. […]

Structure (SMILES)	flowering in cultures (Example 1, MS medium with 1.0 mg/l, explants prepared 22 Oct. 2014, observed by Nov. 5, 2014 (natural flowering season))	flowering in cultures maintained on fresh medium (Example 2, MS medium with 1.0 mg/l, until May 2015)	initiation of flowering in culture (Example 2, MS medium with 1.0 mg/l, until late December 2014 (beyond natural flowering period))	flowering in cultures (Example 3, MS medium with 0.01, 0.05 and 0.1 mg/l, by last week of December 2014)	flowering in cultures maintained on fresh medium (Example 3, MS medium with 0.01, 0.05 and 0.1 mg/l, till May 2015)
c1ccc(CNc2ncnc3nc[nH]c23)cc1 [BAP, 6-benzylaminopurine]	Flowering was observed	flowering was observed	Initiation of flowering was observed		
O=C(Nc1ccccc1)Nc1cnns1 [TDZ, thidiazuron]				Flowering was observed	flowering was observed
